Results taken from US8178517B2, “6-methylvitamin D3 analogs and their uses” (Wisconsin Alumni Research Foundation, priority 2009, dated 2012).
pEC50, pKi: −log10 of the molar value.

How the values were obtained:
HL-60 cells = assay: HL-60 differentiation (nitro blue tetrazolium reduction); type: cell-based, human; details: for pEC50: Homo sapiens, HL-60 cells, differentiation into monocytes, FIG. 2, read-out: EC50, HL-60 cell differentiation
Description: Serial dilutions were prepared so that a range of drug concentrations could be tested without changing the final concentration of ethanol (≦0.2%) present in the cell cultures.
Human promyelocytic leukemia (HL60) cells were grown in RPMI-1640 medium containing 10% fetal bovine serum. The cells were incubated at 37° C. in the presence of 5% CO2.
HL60 cells were plated at 1.2×10^5 cells/ml. Eighteen hours after plating, cells in duplicate were treated with drug. Four days later, the cells were harvested and a nitro blue tetrazolium reduction assay was performed (Collins et al., 1979; J. Exp. Med. 149:969-974). The percentage of differentiated cells was determined by counting a total of 200 cells and recording the number that contained intracellular black-blue formazan deposits. Verification of differentiation to monocytic cells was determined by measuring phagocytic activity (data not shown).

[1] = system: vitamin D-deficient rats on a low calcium diet; assay: Bone calcium mobilization (serum calcium) in vitamin D-deficient rats; type: in vivo, rat; details: for serum calcium (bone calcium mobilization): 7020 pmol/day ip for 4 consecutive days, rats on 0.02% Ca diet
Description: (§1) Intestinal Calcium Transport and Bone Calcium Mobilization
(§2) Male, weanling Sprague-Dawley rats were placed on Diet 11 (0.47% Ca) diet+AEK oil for one week followed by Diet 11 (0.02% Ca)+AEK oil for 3 weeks. The rats were then switched to a diet containing 0.47% Ca for one week followed by two weeks on a diet containing 0.02% Ca. Dose administration began during the last week on 0.02% calcium diet. Four consecutive ip doses were given approximately 24 hours apart. Twenty-four hours after the last dose, blood was collected from the severed neck and the concentration of serum calcium determined as a measure of bone calcium mobilization. The first 10 cm of the intestine was also collected for intestinal calcium transport analysis using the everted gut sac method.

[2] = system: 24-hydroxylase (24Ohase) gene promoter; assay: In vitro transcription assay (24-hydroxylase promoter luciferase reporter in ROS 17/2.8 bone cells); type: cell-based; details: for pEC50: ROS 17/2.8 bone cells, luciferase reporter, FIG. 3, read-out: EC50, transcriptional activity in bone cells (24-hydroxylase gene)
Description: In Vitro Transcription Assay
Transcription activity was measured in ROS 17/2.8 (bone) cells that were stably transfected with a 24-hydroxylase (24Ohase) gene promoter upstream of a luciferase reporter gene (Arbour et al., 1998). Cells were given a range of doses. Sixteen hours after dosing the cells were harvested and luciferase activities were measured using a luminometer.
RLU=relative luciferase units.

[3] = system: vitamin D-deficient rats on a low calcium diet; assay: Intestinal calcium transport, everted gut sac method; type: in vivo, rat; details: for intestinal calcium transport activity (everted gut sac): 7020 pmol/day for 4 consecutive days
Description: as §1, §2

[4] = target: T1, full-length recombinant rat vitamin D receptor (Rattus norvegicus, UniProt P13053); assay: biochemical
T1 sequence (P13053 1-423): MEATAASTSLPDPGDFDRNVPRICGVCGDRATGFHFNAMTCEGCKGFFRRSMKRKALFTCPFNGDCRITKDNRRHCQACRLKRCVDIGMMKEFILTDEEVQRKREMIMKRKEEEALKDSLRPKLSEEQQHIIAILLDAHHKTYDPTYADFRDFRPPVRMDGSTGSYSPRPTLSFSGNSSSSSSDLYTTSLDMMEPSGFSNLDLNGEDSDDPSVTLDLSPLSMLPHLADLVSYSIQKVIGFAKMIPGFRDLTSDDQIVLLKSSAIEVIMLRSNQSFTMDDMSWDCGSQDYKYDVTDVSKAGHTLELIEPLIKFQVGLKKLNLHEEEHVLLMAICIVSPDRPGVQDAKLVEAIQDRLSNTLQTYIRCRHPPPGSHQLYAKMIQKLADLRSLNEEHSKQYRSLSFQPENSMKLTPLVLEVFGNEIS
Description: Vitamin D Receptor Binding
Full-length recombinant rat receptor was expressed in E. coli BL21 (DE3) Codon Plus RIL cells and purified to homogeneity using two different column chromatography systems. The first system was a nickel affinity resin that utilizes the C-terminal histidine tag on this protein. The protein that was eluted from this resin was further purified using ion exchange chromatography (S-Sepharose Fast Flow). Aliquots of the purified protein were quick frozen in liquid nitrogen and stored at −80° C. until use. For use in binding assays, the protein was diluted in TEDK50 (50 mM Tris, 1.5 mM EDTA, pH7.4, 5 mM DTT, 150 mM KCl) with 0.1% Chaps detergent.
Radiolabeled and unlabeled ligands were added to 100 mcl of the diluted protein at a final ethanol concentration of ≦10%, mixed and incubated overnight on ice to reach binding equilibrium. The following day, 100 mcl of hydroxylapatite slurry (50%) was added to each tube and mixed at 10-minute intervals for 30 minutes. The hydroxylapaptite was collected by centrifugation and then washed three times with Tris-EDTA buffer (50 mM Tris, 1.5 mM EDTA, pH 7.4) containing 0.5% Titron X-100. […] Total binding was determined from the tubes containing only radiolabeled ligand.

[5] = Isomerization to previtamin form / storage stability; type: physicochemical; details: can be stored by a prolonged time in a freezer
[6] = relative to 1α,25-dihydroxyvitamin D3
[7] = relative to 1,25(OH)2D3, in vivo, rats

Row | Compound | pEC50 (HL-60 cells) | serum calcium (bone calcium mobilization) ([1]; FIG. 4) [mg/dL] | effect on serum calcium levels across dosages ([1]; all dosages tested, FIG. 4) | pEC50 [2] | intestinal calcium transport activity (everted gut sac) ([3]; rats, FIG. 5) | times less activity than 1α,25-dihydroxyvitamin D3 in HL-60 cell differentiation (HL-60 cells; [6]) [times] | times less potent than 1,25(OH)2D3 in mobilizing calcium from bone [1, 7] | times less transcriptional activity in bone cells than 1α,25-dihydroxyvitamin D3 [2, 6] [times] | pKi [4] | dose dependence of intestinal calcium transport ([3]; across doses, FIG. 5) | times less potent than 1,25(OH)2D3 in stimulating intestinal calcium transport [3, 7] | stability (isomerization to previtamin D form) [5]
1 | C=C1C(=CC=C2CCCC3(C)C2CCC3C(C)CCCC(C)(C)O)CC(O)CC1O (stereo not drawn) [1,25(OH)2D3, 1α,25-dihydroxyvitamin D3, reference compound] | 8.70 | 7.6 | increased serum calcium levels at all dosages | 9.70 | 8.3 |  |  |  |  |  |  | 
2 | C=C1/C(=C(C)\C=C2/CCC[C@@]3(C)C2CCC3[C@H](C)CCCC(C)(C)O)C[C@@H](O)C[C@@H]1O (stereo partly drawn) [Me-Cvit, 1α,25-dihydroxy-6-methylvitamin D3] | 7.10 | 4.3 |  | 8.40 | 4.8 | ~20 | about 400 times | ~10 | 10.70 | promotes intestinal calcium transport in a dose dependent manner | greater than 1,000 times | very easily isomerizes to its previtamin D form 5
